Values joined by “and” are separate entries in the source; they are usually repeats but may differ in a detail not shown here. Equal values may be shown once.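 Interpolation was linear, between the two tested concentrations surrounding the appropriate level; five concentrations were tested over 48 hours in 96-well plates. GI50 is the concentration that inhibits growth by half. TGI: concentration producing complete growth inhibition.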
Experiments:
Assay in all cases: NCI anticancer screen, dose series, 48 h
A498 renal = system: A498 renal
NCI-H460 lung = system: NCI-H460 lung
NCI-H226 lung = system: NCI-H226 lung
A549 NSCLC = system: A549 NSCLC
SF-268 CNS = system: SF-268 CNS
NCI-H522 lung = system: NCI-H522 lung
NCI-H23 lung = system: NCI-H23 lung
HCT-15 colon = system: HCT-15 colon
COLO 205 colon = system: COLO 205 colon
UACC-62 melanoma = system: UACC-62 melanoma
HT29 colon = system: HT29 colon

| Compound | TGI (A498 renal) [µM] | TGI (NCI-H460 lung) [µM] | TGI (NCI-H226 lung) [µM] | TGI (A549 NSCLC) [µM] | TGI (SF-268 CNS) [µM] | TGI (NCI-H522 lung) [µM] | TGI (NCI-H23 lung) [µM] | TGI (HCT-15 colon) | TGI (COLO 205 colon) [µM] | TGI (UACC-62 melanoma) | TGI (HT29 colon) [µM] | GI50 (UACC-62 melanoma) [µM] | GI50 (A498 renal) [µM] | GI50 (NCI-H460 lung) [µM] | GI50 (A549 NSCLC) [µM] | GI50 (SF-268 CNS) [µM] | GI50 (NCI-H23 lung) [µM] | GI50 (HCT-15 colon) [µM] | GI50 (COLO 205 colon) [µM] | GI50 (HT29 colon) [µM] |
| --- | --- | --- | --- | --- | --- | --- | --- | --- | --- | --- | --- | --- | --- | --- | --- | --- | --- | --- | --- | --- |
| C=CCn1c(=O)c(Br)nn(CCOCP(=O)(OCC)OCC)c1=O | > 100 | > 100 | > 100 | > 100 | > 100 | > 100 | > 100 | > 100 µM | > 100 | – | – | – | – | – | – | – | – | – | – | – |
| Nc1nc(SCCNC(=O)CCc2ccc(O)c(I)c2)nc2c1ncn2C1OC(CO)C(O)C1O (centres undefined) | > 100 | > 100 | > 100 | > 100 | > 100 | > 100 | > 100 | > 100 µM | > 100 | > 100 µM | > 100 | – | – | – | – | – | – | – | – | – |
| CC(=O)OCC1=CC2OC(=O)C3=COC(OC4OC(CO)C(O)C(O)C4O)C1C32 (centres undefined) | > 100 | – | > 100 | > 100 | > 100 | > 100 | > 100 | > 100 µM | > 100 | > 100 µM | > 100 | – | – | – | – | – | – | – | – | – |
| N#Cc1ccc([N+](=O)[O-])cc1NC(N)=S | > 100 | – | – | > 100 | > 100 | > 100 | – | > 100 µM | > 100 | – | > 100 | – | – | – | – | – | – | – | – | – |
| CC[C@@]1(O)C[C@H](OC2CC(N(C)C)C(OC3CC(O)C(OC4CCC(=O)C(C)O4)C(C)O3)C(C)O2)c2c(cc3c(c2O)C(=O)c2c(O)cccc2C3=O)C1C(=O)OC (some centres undefined) | 0.213 | 1.42 | – | – | – | – | 0.635 | 1.2 µM and 3.13 µM | – | 0.26 µM and 0.527 µM | 1.42 | – | – | – | – | – | – | – | – | – |
| CC(C)CNCCc1ccccn1 | > 100 | > 100 | > 100 | > 100 | > 100 | > 100 | > 100 | > 100 µM | > 100 | > 100 µM | > 100 | – | – | – | – | – | – | – | – | – |
| O=c1oc2cc(O)ccc2c2oc3cc(O)ccc3c12 | 3.4 | > 113 | > 125 | 125 | > 82.5 | 31.9 | > 125 | > 125 µM | 72.5 | > 125 µM | > 125 | – | – | – | – | – | – | – | – | – |
| CC1=C(SCCO)C(=O)c2ccccc2C1=O | 30.6 | 26.8 | 29.1 | 32.8 | 29.9 | 14.6 | 30.4 | 25.3 µM | 24.1 | 31.7 µM | 38.7 | – | – | – | – | – | – | – | – | – |
| CC(C)C1=CC2=CC[C@@H]3[C@](C)(CCC[C@@]3(C)C(=O)O)[C@H]2CC1 | > 100 | > 100 | > 100 | > 100 | > 100 | > 100 | > 89.9 | > 87 µM | 71.9 | 68.3 µM | 45.9 | – | – | – | – | – | – | – | – | – |
| COc1cc2c3c(n(CCCn4cncn4)c(=O)c2cc1OC)-c1cc2c(cc1C3=O)OCO2 | > 100 | > 100 | > 100 | > 100 | > 100 | > 100 | 57.5 | > 100 µM | > 100 | – | > 100 | < 0.01 | 16.8 | < 0.01 | 16.3 | 99 | 0.0906 | > 100 | > 100 | > 73.1 |
| C1=CC=C2NCCc3cccc(c3)CCNC3=CC=CC=CC3=NCCCCCCN=C2C=C1 | – | 25.3 | 86 | > 100 | > 100 | 47.2 | 48.3 | 56.3 µM | 38.8 | 50.7 µM | > 100 | – | – | – | – | – | – | – | – | – |
| CCCCC(=O)c1c(O)ccc2c(C)cc(=O)oc12 | > 100 | > 100 | > 100 | > 100 | > 100 | > 100 | > 100 | > 100 µM | > 100 | > 100 µM | > 100 | – | – | – | – | – | – | – | – | – |
| CC(=O)OCCCCN1C(=O)CSc2ccccc21 | > 100 | > 100 | – | > 100 | – | > 100 | – | > 100 µM | – | > 100 µM | – | – | – | – | – | – | – | – | – | – |
| O=C1CCCCN1 | > 52 | > 1120 | > 1120 | > 1120 | > 1120 | > 1120 | > 1120 | > 1120 µM | > 1120 | > 1120 µM | > 1120 | – | – | – | – | – | – | – | – | – |
| O=Cc1ccccc1CCn1c(=O)c2cc3c(=O)n(CCc4ccccc4C=O)c(=O)c3cc2c1=O | > 100 | > 100 | > 100 | > 100 | > 100 | > 100 | > 100 | > 100 µM | – | > 100 µM | > 100 | – | – | – | – | – | – | – | – | – |

Reference: PubChem BioAssay (NCI)
